Laboratory results published in ChEMBL document CHEMBL1137110, “Synthesis and biological activity of 22-oxa CD-ring modified analogues of 1alpha,25-dihydroxyvitamin D3: spiro[5.5]undecane CF-ring analogues” (2004).

Tests used:
[1] = molecular target: T1, Vitamin D3 receptor (Mus musculus) (UniProt P48281); assay: Effect on Ca level in mouse serum relative to 1-alpha,25(OH)2D3 treatment; type: functional, in vivo
T1 sequence (whole entry): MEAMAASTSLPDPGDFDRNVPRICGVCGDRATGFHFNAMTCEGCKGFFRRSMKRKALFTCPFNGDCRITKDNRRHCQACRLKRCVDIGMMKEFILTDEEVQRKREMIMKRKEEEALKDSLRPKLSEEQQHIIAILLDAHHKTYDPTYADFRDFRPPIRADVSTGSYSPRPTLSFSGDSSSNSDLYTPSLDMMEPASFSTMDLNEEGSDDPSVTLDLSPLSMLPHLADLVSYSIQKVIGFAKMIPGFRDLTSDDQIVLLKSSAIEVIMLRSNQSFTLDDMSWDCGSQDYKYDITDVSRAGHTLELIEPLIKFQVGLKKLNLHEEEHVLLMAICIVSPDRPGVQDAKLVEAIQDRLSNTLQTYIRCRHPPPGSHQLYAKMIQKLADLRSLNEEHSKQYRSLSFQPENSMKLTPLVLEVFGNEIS

[2] = molecular target: T2, Vitamin D3 receptor (Sus scrofa) (UniProt A3RGC1); assay: Binding affinity for pig nuclear vitamin D receptor relative to 1-alpha,25(OH)2D3
T2 sequence (whole entry): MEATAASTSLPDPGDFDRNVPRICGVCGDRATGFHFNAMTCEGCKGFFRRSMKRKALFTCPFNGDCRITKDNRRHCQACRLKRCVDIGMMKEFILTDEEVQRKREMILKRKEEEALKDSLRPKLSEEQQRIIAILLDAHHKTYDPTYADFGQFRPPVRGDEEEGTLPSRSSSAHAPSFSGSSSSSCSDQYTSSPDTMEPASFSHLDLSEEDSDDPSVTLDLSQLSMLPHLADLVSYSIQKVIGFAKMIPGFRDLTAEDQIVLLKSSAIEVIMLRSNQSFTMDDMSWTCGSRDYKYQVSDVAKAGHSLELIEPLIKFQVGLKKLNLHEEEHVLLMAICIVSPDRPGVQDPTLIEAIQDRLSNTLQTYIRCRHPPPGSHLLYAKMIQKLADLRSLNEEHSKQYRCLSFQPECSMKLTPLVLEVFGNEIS

[3] = molecular target: T3, Vitamin D3 receptor (Homo sapiens) (UniProt P11473); assay: Antiproliferative activity in human breast cancer MCF-7 cells relative to 1-alpha,25(OH)2D3; type: functional, cell-based; conditions: MCF7
T3 sequence (whole entry): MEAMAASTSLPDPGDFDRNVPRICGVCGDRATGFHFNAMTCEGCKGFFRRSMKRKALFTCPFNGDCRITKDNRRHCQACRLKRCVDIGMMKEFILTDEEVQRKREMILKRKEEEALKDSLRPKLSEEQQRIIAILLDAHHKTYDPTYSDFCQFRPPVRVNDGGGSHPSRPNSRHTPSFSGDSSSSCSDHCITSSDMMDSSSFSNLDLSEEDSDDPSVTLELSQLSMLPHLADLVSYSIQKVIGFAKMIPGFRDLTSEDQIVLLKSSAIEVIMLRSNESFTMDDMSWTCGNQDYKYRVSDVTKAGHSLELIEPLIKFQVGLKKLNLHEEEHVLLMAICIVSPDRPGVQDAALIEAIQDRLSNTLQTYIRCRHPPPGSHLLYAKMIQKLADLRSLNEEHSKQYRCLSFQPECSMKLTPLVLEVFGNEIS

HL-60 = assay: Prodifferentiating activity of compound on human leukemia HL-60 cells was determined; type: functional
MCF7 = assay: Antiproliferative activity on human breast cancer MCF-7 cells was determined; type: functional
Mus musculus = species: Mus musculus; assay: Effect of compound on Ca level in mice blood serum was determined; type: functional
[4] = molecular target: T2, Vitamin D3 receptor (Sus scrofa); assay: Binding affinity for pig nuclear vitamin D receptor
[5] = molecular target: T3, Vitamin D3 receptor (Homo sapiens); assay: Differentiation activity in human leukemia HL-60 cells relative to 1-alpha,25(OH)2D3; type: functional, cell-based

Structure (SMILES) | Activity [1] | Activity [2] | Activity [3] | Activity (HL-60) | Activity (MCF7) | Activity (Mus musculus) | Activity [4] | Activity [5]
C=C1/C(=C\C=C2/CCC[C@]3(CC[C@@H](OCCC(C)(C)O)CC3)C2)C[C@@H](O)C[C@@H]1O | < 0.25 | 0.5 | 10 |  |  |  |  | 
C=C1/C(=C\C=C2/CCC[C@]3(C)[C@@H]([C@H](C)CCCC(C)(C)O)CC[C@@H]23)C[C@@H](O)C[C@@H]1O [CALCITRIOL] |  |  |  | 100 | 100 | 100 | 100 | 
CC(C)(O)CCO[C@H]1CC[C@]2(CCC/C(=C\C=C3C[C@@H](O)C[C@H](O)C3)C2)CC1 | < 0.25 | < 0.1 | 7 |  |  |  |  | 6
C=C1/C(=C/C=C2/CCC[C@]3(CC[C@H](OCCC(C)(C)O)CC3)C2)C[C@@H](O)C[C@@H]1O | < 0.25 | < 0.1 | 0 |  |  |  |  | < 1
CC(C)(O)CCO[C@H]1CC[C@@]2(CCC/C(=C\C=C3C[C@@H](O)C[C@H](O)C3)C2)CC1 | < 0.25 | < 0.1 | 60 |  |  |  |  | 8
